Values of other authors as cited in patent publication US8748086B2, “Aqueous solution for the preservation of tissues and organs” (Universidad de Barcelona, priority 2008, dated 2014).

Legend:
[1] = system: non-steatotic and steatotic livers; details: prolonged ischemic periods; Ben Mosbah et al. 2006
[2] = system: hearts; details: tacrolimus in UW preservation solution; Rajesh et al. 2003

SMILES	capacity of the preservation solution to protect livers [1]	effect on preservation of hearts [2]
COc1ccc(CN2CCNCC2)c(OC)c1OC [trimetazidine]	improved the capacity of this standard preservation solution to protect	
C=CC[C@@H]1/C=C(\C)C[C@H](C)C[C@H](OC)[C@H]2O[C@@](O)(C(=O)C(=O)N3CCCC[C@H]3C(=O)O[C@H](/C(C)=C/[C@@H]3CC[C@@H](O)[C@H](OC)C3)[C@H](C)[C@@H](O)CC1=O)[C@H](C)C[C@@H]2OC [tacrolimus, Tacrolimus]		failed to have any effect on preservation
